Data from ChEMBL document CHEMBL5442175, “EUbOPEN Chemogenomics Library - PDSP Secondary Binding” (2024).
pKi: −log10 of the molar value. Structures can show the parent of a compound that is named as a salt. Each block holds one compound with its values, some of them ahead of it.

Tests used:
[1] = molecular target: Sodium-dependent dopamine transporter (Homo sapiens, UniProt Q01959); experiment: (§1) PDSP Secondary Binding target: SLC6A3 - Compounds are tested at 10 uM concentration, plate are incubated at room temperature in the dark for 90 minutes. Reaction are stopped by vacuum filtration onto 0.3% polyethyleneimine soaked filter mats using Filtermate harvester. Scintillation cocktail is then melted onto microwave-dried filters on a hot plate and the radio activity is counted in Microbia counter.
[2] = molecular target: Sigma non-opioid intracellular receptor 1 (Homo sapiens, UniProt Q99720); experiment: as §1, with “SIGMAR1” for “SLC6A3”
[3] = molecular target: Translocator protein (Homo sapiens, UniProt P30536); experiment: as §1, with “TSPO” for “SLC6A3”
[4] = molecular target: 5-hydroxytryptamine receptor 2B (Homo sapiens, UniProt P41595); experiment: as §1, with “HTR2B” for “SLC6A3”
[5] = molecular target: T1, Muscarinic acetylcholine receptor M5 (Homo sapiens, UniProt P08912); experiment: as §1, with “CHRM5” for “SLC6A3”
T1 sequence (P08912 whole entry): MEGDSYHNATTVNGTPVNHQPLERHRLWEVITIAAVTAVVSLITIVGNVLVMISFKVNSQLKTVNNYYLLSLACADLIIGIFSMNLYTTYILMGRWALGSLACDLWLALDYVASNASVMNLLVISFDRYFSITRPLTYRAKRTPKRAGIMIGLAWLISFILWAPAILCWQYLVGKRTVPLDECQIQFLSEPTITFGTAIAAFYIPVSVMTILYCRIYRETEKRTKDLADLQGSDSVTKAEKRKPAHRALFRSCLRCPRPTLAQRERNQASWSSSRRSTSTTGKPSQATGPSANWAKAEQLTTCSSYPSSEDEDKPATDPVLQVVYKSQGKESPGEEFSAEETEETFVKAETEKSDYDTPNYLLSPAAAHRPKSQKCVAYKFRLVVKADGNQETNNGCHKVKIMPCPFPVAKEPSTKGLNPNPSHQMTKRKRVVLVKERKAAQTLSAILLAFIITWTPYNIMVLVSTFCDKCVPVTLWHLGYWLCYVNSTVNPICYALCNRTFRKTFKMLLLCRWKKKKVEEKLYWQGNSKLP

[6] = molecular target: T2, Alpha-1B adrenergic receptor (Homo sapiens, UniProt P35368); experiment: as §1, with “ADRA1B” for “SLC6A3”
T2 sequence (P35368 whole entry): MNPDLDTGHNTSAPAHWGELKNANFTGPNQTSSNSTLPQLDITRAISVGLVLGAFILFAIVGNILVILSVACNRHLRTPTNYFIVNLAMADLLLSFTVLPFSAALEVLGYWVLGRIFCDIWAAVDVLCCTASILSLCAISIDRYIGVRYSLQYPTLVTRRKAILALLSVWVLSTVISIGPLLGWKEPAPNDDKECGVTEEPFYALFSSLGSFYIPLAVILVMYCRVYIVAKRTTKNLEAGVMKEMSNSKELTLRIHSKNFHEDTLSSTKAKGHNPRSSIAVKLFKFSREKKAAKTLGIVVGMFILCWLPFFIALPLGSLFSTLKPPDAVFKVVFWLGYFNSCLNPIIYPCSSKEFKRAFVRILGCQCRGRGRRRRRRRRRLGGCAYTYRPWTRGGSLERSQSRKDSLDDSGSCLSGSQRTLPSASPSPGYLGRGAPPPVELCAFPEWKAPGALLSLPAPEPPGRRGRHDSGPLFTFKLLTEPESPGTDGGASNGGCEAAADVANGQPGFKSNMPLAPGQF

[7] = molecular target: Sigma intracellular receptor 2 (Homo sapiens, UniProt Q5BJF2); experiment: as §1, with “TMEM97” for “SLC6A3”
[8] = molecular target: 5-hydroxytryptamine receptor 5A (Homo sapiens, UniProt P47898); experiment: as §1, with “HTR5A” for “SLC6A3”
[9] = molecular target: T3, D(4) dopamine receptor (Homo sapiens, UniProt P21917); experiment: as §1, with “DRD4” for “SLC6A3”
T3 sequence (P21917 whole entry): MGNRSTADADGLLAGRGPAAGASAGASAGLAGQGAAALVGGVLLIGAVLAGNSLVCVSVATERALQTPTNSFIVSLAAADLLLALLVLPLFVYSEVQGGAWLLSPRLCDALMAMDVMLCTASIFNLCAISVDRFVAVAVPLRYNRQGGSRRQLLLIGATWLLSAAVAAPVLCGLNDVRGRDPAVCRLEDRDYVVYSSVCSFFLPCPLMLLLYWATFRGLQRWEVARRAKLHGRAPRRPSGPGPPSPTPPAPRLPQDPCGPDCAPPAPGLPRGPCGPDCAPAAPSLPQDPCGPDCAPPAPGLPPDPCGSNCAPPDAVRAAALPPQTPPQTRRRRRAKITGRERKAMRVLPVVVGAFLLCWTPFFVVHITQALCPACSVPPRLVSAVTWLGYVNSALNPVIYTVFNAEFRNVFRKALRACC

[10] = molecular target: 5-hydroxytryptamine receptor 1D (Homo sapiens, UniProt P28221); experiment: as §1, with “HTR1D” for “SLC6A3”
[11] = molecular target: D(3) dopamine receptor (Homo sapiens, UniProt P35462); experiment: as §1, with “DRD3” for “SLC6A3”
[12] = molecular target: Mu-type opioid receptor (Homo sapiens, UniProt P35372); experiment: as §1, with “OPRM1” for “SLC6A3”
[13] = molecular target: 5-hydroxytryptamine receptor 2A (Homo sapiens, UniProt P28223); experiment: as §1, with “HTR2A” for “SLC6A3”
[14] = molecular target: Sodium-dependent noradrenaline transporter (Homo sapiens, UniProt P23975); experiment: as §1, with “SLC6A2” for “SLC6A3”
[15] = molecular target: T4, Alpha-2A adrenergic receptor (Homo sapiens, UniProt P08913); experiment: as §1, with “ADRA2A” for “SLC6A3”
T4 sequence (P08913 whole entry): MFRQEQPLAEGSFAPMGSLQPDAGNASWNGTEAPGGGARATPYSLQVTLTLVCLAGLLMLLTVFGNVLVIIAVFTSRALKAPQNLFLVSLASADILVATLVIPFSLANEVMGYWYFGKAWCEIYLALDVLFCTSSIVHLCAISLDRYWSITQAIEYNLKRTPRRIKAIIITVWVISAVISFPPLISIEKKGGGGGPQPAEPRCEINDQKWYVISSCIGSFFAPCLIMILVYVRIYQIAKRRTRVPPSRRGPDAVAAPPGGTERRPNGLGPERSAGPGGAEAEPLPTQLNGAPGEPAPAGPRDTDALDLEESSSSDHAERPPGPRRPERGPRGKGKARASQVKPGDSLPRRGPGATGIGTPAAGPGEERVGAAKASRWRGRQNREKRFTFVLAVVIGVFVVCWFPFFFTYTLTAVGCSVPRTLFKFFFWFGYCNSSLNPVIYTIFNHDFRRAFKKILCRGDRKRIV

[16] = molecular target: 5-hydroxytryptamine receptor 7 (Homo sapiens, UniProt P34969); experiment: as §1, with “HTR7” for “SLC6A3”
Sequence of 5-hydroxytryptamine receptor 7 (P34969 whole entry): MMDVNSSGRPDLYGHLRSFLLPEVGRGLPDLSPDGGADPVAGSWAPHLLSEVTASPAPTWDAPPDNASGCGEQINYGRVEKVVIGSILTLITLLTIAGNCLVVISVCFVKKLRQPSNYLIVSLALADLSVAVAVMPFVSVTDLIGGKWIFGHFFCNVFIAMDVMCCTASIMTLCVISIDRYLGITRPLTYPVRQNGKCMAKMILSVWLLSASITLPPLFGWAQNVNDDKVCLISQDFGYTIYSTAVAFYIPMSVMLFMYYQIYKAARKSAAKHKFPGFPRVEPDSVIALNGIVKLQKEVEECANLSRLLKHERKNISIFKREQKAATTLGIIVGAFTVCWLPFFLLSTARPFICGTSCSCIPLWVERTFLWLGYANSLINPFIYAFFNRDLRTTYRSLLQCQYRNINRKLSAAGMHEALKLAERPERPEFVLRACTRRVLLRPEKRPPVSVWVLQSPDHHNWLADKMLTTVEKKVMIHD

Sequence of 5-hydroxytryptamine receptor 2A (P28223 whole entry): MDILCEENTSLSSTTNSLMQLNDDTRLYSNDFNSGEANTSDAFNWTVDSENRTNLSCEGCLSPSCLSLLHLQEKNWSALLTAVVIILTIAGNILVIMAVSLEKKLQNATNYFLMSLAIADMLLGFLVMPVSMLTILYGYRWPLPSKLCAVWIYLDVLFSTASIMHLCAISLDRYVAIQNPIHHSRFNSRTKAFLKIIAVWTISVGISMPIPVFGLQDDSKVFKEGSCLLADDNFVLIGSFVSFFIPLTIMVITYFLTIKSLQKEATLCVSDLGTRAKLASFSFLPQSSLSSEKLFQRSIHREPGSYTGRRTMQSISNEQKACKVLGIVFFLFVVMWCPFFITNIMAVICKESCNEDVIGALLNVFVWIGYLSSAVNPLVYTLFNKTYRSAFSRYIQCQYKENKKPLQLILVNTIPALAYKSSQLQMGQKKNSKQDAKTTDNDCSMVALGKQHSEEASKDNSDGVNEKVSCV
Sequence of Sodium-dependent dopamine transporter (Q01959 whole entry): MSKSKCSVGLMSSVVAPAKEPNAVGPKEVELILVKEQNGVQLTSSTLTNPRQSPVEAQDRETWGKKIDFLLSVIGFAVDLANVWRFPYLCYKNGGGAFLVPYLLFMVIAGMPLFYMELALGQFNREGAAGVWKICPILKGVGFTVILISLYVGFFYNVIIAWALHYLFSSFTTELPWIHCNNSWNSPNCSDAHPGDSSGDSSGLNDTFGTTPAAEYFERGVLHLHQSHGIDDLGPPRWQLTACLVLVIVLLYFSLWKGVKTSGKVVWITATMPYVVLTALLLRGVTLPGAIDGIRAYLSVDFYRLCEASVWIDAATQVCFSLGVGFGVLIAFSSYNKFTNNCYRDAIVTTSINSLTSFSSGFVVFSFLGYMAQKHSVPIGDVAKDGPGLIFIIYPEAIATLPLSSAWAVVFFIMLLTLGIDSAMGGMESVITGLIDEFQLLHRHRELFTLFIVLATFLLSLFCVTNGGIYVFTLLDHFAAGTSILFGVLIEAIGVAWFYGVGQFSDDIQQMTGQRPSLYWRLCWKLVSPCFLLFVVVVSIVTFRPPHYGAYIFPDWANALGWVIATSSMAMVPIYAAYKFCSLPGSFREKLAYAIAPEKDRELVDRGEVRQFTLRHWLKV
Sequence of Sigma non-opioid intracellular receptor 1 (Q99720 whole entry): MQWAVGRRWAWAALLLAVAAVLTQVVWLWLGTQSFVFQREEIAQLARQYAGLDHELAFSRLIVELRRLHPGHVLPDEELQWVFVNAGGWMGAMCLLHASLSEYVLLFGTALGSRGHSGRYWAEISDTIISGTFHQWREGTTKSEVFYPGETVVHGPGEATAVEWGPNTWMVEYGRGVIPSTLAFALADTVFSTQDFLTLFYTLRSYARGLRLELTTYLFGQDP
Sequence of 5-hydroxytryptamine receptor 2B (P41595 whole entry): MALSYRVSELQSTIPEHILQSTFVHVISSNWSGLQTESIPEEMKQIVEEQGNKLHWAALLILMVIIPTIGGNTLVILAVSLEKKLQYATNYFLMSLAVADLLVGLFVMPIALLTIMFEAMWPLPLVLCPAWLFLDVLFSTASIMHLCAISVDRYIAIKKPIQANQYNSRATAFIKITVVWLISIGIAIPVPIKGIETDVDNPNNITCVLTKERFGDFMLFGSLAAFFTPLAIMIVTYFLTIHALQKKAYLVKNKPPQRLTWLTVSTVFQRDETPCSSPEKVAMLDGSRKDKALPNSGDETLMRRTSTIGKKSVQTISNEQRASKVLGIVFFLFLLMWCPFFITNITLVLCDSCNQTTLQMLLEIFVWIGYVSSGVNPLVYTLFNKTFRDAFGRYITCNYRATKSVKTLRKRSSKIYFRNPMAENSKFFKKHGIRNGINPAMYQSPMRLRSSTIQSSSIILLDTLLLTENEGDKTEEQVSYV
Sequence of D(3) dopamine receptor (P35462 whole entry): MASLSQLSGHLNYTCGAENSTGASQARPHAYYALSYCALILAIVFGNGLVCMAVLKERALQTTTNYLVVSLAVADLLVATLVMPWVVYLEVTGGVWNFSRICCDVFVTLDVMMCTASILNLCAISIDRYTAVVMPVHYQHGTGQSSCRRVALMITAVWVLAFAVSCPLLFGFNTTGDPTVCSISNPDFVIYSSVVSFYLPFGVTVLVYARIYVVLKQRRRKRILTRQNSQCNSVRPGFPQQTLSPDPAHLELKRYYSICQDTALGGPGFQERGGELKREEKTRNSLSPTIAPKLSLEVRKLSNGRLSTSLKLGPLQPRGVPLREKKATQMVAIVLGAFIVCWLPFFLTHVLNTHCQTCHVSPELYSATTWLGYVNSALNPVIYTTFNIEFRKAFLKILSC
Sequence of Sigma intracellular receptor 2 (Q5BJF2 whole entry): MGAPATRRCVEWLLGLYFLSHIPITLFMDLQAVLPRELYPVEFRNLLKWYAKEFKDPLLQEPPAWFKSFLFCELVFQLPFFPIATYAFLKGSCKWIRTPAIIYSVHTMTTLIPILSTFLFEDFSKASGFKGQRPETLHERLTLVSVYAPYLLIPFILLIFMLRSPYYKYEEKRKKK
Sequence of Translocator protein (P30536 whole entry): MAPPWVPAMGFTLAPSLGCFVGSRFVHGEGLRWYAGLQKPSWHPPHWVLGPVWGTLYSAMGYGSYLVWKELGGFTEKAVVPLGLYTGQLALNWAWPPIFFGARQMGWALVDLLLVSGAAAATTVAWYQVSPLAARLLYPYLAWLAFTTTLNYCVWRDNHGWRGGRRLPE
Sequence of 5-hydroxytryptamine receptor 5A (P47898 whole entry): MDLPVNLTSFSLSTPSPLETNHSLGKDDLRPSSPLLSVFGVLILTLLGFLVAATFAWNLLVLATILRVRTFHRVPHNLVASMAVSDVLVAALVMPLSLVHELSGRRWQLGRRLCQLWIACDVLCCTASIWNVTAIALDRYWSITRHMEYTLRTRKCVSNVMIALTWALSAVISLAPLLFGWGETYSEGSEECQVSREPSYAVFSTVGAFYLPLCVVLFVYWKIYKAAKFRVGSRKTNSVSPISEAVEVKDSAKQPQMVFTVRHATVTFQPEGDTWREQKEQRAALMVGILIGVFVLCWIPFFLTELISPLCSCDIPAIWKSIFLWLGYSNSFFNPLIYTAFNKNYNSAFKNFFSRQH
Sequence of 5-hydroxytryptamine receptor 1D (P28221 whole entry): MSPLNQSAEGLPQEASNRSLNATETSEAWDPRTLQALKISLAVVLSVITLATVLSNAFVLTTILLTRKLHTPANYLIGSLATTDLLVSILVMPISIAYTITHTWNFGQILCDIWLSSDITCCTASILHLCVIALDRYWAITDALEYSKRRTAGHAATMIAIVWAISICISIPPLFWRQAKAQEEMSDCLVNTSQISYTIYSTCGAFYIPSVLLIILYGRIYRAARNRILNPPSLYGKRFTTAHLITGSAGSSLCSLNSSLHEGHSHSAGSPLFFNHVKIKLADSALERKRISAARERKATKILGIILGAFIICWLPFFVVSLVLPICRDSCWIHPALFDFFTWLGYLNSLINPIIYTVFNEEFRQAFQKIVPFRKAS
Sequence of Mu-type opioid receptor (P35372 whole entry): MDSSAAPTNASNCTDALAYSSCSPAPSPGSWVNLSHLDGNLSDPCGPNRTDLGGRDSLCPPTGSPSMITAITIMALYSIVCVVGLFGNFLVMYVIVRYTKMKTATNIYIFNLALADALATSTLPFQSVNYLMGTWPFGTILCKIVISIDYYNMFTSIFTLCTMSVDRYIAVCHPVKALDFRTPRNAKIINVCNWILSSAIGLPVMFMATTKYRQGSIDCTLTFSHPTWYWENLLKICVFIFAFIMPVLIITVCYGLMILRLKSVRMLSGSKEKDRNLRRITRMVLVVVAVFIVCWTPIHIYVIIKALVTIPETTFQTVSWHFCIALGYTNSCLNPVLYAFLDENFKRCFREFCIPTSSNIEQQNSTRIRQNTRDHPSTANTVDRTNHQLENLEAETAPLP
Sequence of Sodium-dependent noradrenaline transporter (P23975 whole entry): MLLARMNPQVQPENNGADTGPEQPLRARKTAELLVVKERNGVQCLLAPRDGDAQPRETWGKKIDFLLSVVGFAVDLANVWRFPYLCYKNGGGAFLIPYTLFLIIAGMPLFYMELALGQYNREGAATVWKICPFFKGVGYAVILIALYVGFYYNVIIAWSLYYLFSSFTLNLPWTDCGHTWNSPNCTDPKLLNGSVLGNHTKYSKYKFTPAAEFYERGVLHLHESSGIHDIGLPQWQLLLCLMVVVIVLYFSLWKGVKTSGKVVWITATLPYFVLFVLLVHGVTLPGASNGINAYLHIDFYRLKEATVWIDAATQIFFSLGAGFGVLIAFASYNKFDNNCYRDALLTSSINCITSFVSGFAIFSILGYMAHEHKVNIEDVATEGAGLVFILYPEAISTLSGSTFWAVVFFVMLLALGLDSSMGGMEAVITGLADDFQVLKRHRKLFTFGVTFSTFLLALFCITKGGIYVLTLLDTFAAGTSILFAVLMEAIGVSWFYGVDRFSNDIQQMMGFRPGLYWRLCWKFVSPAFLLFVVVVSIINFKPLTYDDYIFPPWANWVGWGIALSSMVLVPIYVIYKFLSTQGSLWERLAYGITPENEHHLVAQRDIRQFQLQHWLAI

pKi [1]: 5.37
pKi [2]: 6.01
Structure (SMILES): FC(F)(F)c1c(N2CCC(c3ccccc3)CC2)ccn2c(CC3CC3)nnc12

pKi [3]: < 5.00
Structure (SMILES): NC(=O)[C@@H]1CCCN1C(=O)[C@H](Cc1cnc[nH]1)NC(=O)[C@@H]1CCC(=O)N1 [PROTIRELIN]

pKi [4]: 5.57
pKi [2]: 5.24
Structure (SMILES): CCc1cc(C(C)=O)c(O)cc1OCCCCCC(C)(C)c1nn[nH]n1 [LY-255283]

pKi [5]: 5.16
pKi [6]: < 5.00
pKi [1]: 5.35
Structure (SMILES): Cc1nc(-c2ccc(C(F)(F)F)cc2)sc1COc1ccc([C@H](CC(=O)O)c2ccon2)cc1

Structure (SMILES): CC(C)NCC(O)COc1cccc2[nH]ccc12 (stereo not given) [PINDOLOL]
pKi [7]: 5.48
pKi [8]: 5.15
pKi [9]: 5.78

pKi [7]: 5.78
pKi [2]: 6.61
Structure (SMILES): CC(C)NCC(O)COc1ccc(CCOCC2CC2)cc1 (stereo not given) [BETAXOLOL HYDROCHLORIDE]

pKi [10]: < 5.00
Structure (SMILES): O=C(Cc1ccccc1)Nc1nc2ccc(Cl)cc2c2nc(-c3ccco3)nn12

pKi [7]: 5.97
Structure (SMILES): Nc1nc(NCCc2ccc(O)cc2)nc2nc(-c3ccco3)nn12 [ZM-241385]

pKi [11]: 6.23
Structure (SMILES): O=C(O)CC1CCC2(CC1)CCN(c1cc(OC(F)(F)F)ccc1Cl)CC2

pKi [5]: 5.18
Structure (SMILES): N#Cc1c(O)nc(SCc2cccc(F)c2F)nc1C1CC1

Structure (SMILES): CC1(C)SSC(C)(C)[C@@H](NC(=O)[C@@H](N)Cc2ccc(O)cc2)C(=O)NCC(=O)N[C@@H](Cc2ccccc2)C(=O)N[C@H]1C(=O)O
pKi [3]: 5.79

Structure (SMILES): COc1ccccc1CN[C@H]1C2CCN(CC2)[C@H]1C(c1ccccc1)c1ccccc1 [CP-96345]
pKi [5]: 5.31
pKi [7]: 6.04

Structure (SMILES): CN1C(=O)[C@@H](NC(=O)c2cc3ccccc3[nH]2)N=C(c2ccccc2)c2ccccc21 [DEVAZEPIDE]
pKi [3]: 5.48

pKi [3]: < 5.00
pKi [8]: 6.10
pKi [12]: 5.75
pKi [2]: 5.53
Structure (SMILES): COc1cc2nc(N3CCN(C(=O)c4ccco4)CC3)nc(N)c2cc1OC [PRAZOSIN HYDROCHLORIDE]

pKi [7]: 5.89
pKi [1]: 6.28
Structure (SMILES): CCCSc1nc(N[C@@H]2C[C@H]2c2ccc(F)c(F)c2)c2nnn([C@@H]3C[C@H](OCCO)[C@@H](O)[C@H]3O)c2n1 [TICAGRELOR]

pKi [4]: 6.18
pKi [2]: 6.04
Structure (SMILES): Cc1c(C(=O)NC2CCCCC2)sc2nc3ccc(N)cc3n12

pKi [1]: 5.47
Structure (SMILES): CCCn1c(=O)c2[nH]c(C34CC5CC(CC3C5)C4)nc2n(CCC)c1=O [ROLOFYLLINE]

pKi [13]: 6.01
pKi [3]: 6.95
Structure (SMILES): CC(C)Oc1ccccc1C(=O)Nc1ccccc1C(=O)Nc1cccc(S(=O)(=O)C(F)(F)F)c1

pKi [11]: 5.71
Structure (SMILES): COc1ccc(/C=C/CCCCOc2ccc(C(=O)c3cccc(C(=O)O)c3)cc2CCC(=O)O)cc1

pKi [7]: 5.73
pKi [2]: 6.08
Structure (SMILES): CO[C@@H]1COCC[C@@H]1N[C@@H]1CC[C@@](C(=O)N2CCc3ncc(C(F)(F)F)cc3C2)(C(C)C)C1 [MK-0812]

pKi [13]: 5.34
Structure (SMILES): COc1ccc(CNC(=O)c2cc(-c3cncc(Cl)c3)cnc2-c2ccccn2)nc1OC [MK-1064]

pKi [11]: 5.67
pKi [5]: < 5.00
pKi [1]: 5.52
Structure (SMILES): Cc1csc(NC(=O)c2cc(F)cc(Oc3cncnc3)c2)n1

Structure (SMILES): CC1=C2C[C@H]3[C@@H](CC=C4C[C@@H](O)CC[C@@]43C)[C@@H]2CC[C@]12O[C@@H]1C[C@H](C)CN[C@H]1[C@H]2C [CYCLOPAMINE]
pKi [7]: 6.22
pKi [1]: 5.47

pKi [7]: 5.67
pKi [3]: 5.73
Structure (SMILES): CCCCN(CC)c1nc(C)nc2c1c(C)cn2-c1c(C)cc(C)cc1C

pKi [3]: 6.01
pKi [2]: 6.32
Structure (SMILES): COC1CCN(c2cccc(-c3cc(NC(C)=O)nc(-n4nc(C)cc4C)n3)n2)CC1

pKi [14]: 6.46
Structure (SMILES): Cc1cc(C)c(N)c(C#Cc2cccc(F)c2)n1 [RASEGLURANT]

pKi [4]: 6.07
pKi [6]: < 5.00
Structure (SMILES): COc1cc2c(CCNC(C)=O)c[nH]c2cc1Cl

pKi [11]: 6.23
Structure (SMILES): COc1ccc(Br)cc1S(=O)(=O)NC(=O)/C=C/c1ccccc1Cc1ccc2ccccc2c1

pKi [15]: < 5.00
Structure (SMILES): Cc1c(F)cccc1NC(=O)Nc1ccc(Cl)c(S(=O)(=O)[C@H]2CCCNC2)c1O [DANIRIXIN]

pKi [16]: 5.95
Structure (SMILES): CNC[C@H](O)c1cccc(O)c1 [PHENYLEPHRINE]

Structure (SMILES): CCCCCCCCCCCCC/C=C/[C@@H](O)[C@@H](N)COP(=O)(O)O
pKi [7]: 6.17
pKi [3]: 5.51
pKi [2]: 5.22

pKi [11]: 5.45
Structure (SMILES): O=C1O[C@]2(CC[C@H](C(=O)Nc3ccn(-c4ccccc4F)n3)CC2)c2cnccc21 [MK-0557]

pKi [2]: 5.05
Structure (SMILES): CCC(=O)NCC[C@@H]1CCc2ccc3c(c21)CCO3 [RAMELTEON]

pKi [16]: 6.48
pKi [2]: 5.56
Structure (SMILES): COC(=O)[C@H]1[C@H]2C[C@H]3c4[nH]c5ccccc5c4CCN3C[C@H]2CC[C@@H]1O [RAUWOLSCINE HYDROCHLORIDE]

pKi [13]: 5.10
pKi [1]: < 5.00
Structure (SMILES): CCCCC#Cc1nc(NC)c2ncn([C@@H]3O[C@H](CO)[C@@H](O)[C@H]3O)c2n1
